Test results from article PMC6272775, “Three New Pigment Protein Tyrosine Phosphatases Inhibitors from the Insect Parasite Fungus Cordyceps gracilioides: Terreusinone A, Pinophilin C and Cryptosporioptide A” (Molecules, 2015).

What was measured:
Type in all cases: biochemical
SHP2 = molecular target: T1, SHP2 (Homo sapiens, UniProt Q06124); test: PTP assay with pNPP as substrate, SHP2; settings: GST-ΔSHP2 PTP activity domain, 37 °C, pH 5.5
T1 construct: fusion proteins which only carry the PTP activity domain were expressed in Escherichia coli DH5α; GST (N); made in house; host or cells: Escherichia coli DH5α
T1 sequence (Q06124 247-517 limits assumed): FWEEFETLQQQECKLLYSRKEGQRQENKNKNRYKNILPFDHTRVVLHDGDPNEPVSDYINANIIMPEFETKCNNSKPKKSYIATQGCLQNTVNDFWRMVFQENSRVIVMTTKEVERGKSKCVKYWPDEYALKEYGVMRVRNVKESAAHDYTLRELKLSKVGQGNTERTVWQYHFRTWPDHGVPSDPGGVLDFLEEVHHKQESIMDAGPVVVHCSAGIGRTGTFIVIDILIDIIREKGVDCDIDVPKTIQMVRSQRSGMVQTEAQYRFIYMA
Source text: (§1) Protein tyrosine phosphatases (PTPs) constitute a large family of signaling enzymes that control the cellular levels of protein tyrosine phosphorylation. Several “classical” PTPs are attractive therapeutic targets, including PTP1B for obesity and Type II diabetes, SHP1, and SHP2 and CDC25B for cancer. GST-ΔPTP1B, GST-ΔSHP2, GST-ΔSHP1, GST-ΔLAR and GST-ΔCDC25B fusion proteins which only carry the PTP activity domain were expressed in Escherichia coli DH5α and affinity purified with glutathione Sepharose (Amersham Biosciences, Piscataway, NJ, USA). p-Nitrophenyl phosphate (pNPP) was used in the enzymatic reactions to determine the intrinsic catalytic activities of the PTPs. All assays using pNPP as the substrate were performed in a buffered reaction medium containing 10 mM of sodium acetate (NaAc), 1 mM of ethylenediaminetetraacetic acid and 1 mM of dithiothreitol at 37 °C, pH 5.5. Sodium orthovanadate was used as the positive control. Every experiment was performed in triplicate. The inhibitory activity measurements of PTPs were performed with different concentrations (0, 2.5, 5, 10, 20, 40 µg mL^−1) of inhibitor and 20 µg mL^−1 of PTPs. The reaction mixture was incubated at 37 °C for 15 min and the catalytic activity was detected by monitoring the absorbance at 405 nm immediately after adding 12.5 mM of pNPP. IC50 (the concentration of an inhibitor that is required for 50% inhibition of an enzyme) data were derived from the experimental results.

SHP1 = molecular target: T2, SHP1 (Homo sapiens, UniProt P29350); test: PTP assay with pNPP as substrate, SHP1; settings: GST-ΔSHP1 PTP activity domain, 37 °C, pH 5.5
T2 construct: fusion proteins which only carry the PTP activity domain were expressed in Escherichia coli DH5α; GST (N); made in house; host or cells: Escherichia coli DH5α
T2 sequence (P29350 244-515 limits assumed): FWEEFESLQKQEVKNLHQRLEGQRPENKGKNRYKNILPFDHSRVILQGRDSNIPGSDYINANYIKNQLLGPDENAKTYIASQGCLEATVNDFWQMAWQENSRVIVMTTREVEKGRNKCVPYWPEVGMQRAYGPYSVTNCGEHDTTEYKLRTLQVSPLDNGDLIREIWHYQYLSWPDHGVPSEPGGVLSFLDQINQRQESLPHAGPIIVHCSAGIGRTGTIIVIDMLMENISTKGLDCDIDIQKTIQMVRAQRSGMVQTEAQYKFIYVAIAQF
Source text: as §1

PTP1B = molecular target: T3, PTP1B (Homo sapiens, UniProt P18031); test: PTP assay with pNPP as substrate, PTP1B; settings: GST-ΔPTP1B PTP activity domain, 37 °C, pH 5.5
T3 construct: fusion proteins which only carry the PTP activity domain were expressed in Escherichia coli DH5α; GST (N); made in house; host or cells: Escherichia coli DH5α
T3 sequence (P18031 3-277 limits assumed): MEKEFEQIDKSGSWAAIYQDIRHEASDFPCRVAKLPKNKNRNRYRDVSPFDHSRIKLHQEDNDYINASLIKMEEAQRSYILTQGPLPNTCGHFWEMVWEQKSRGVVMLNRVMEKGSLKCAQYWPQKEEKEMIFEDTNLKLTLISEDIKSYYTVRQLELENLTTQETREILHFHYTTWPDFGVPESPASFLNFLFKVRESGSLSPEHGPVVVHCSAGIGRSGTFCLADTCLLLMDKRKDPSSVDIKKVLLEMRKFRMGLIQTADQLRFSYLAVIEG
Source text: Protein tyrosine phosphatases (PTPs) constitute a large family of signaling enzymes that control the cellular levels of protein tyrosine phosphorylation. Several “classical” PTPs are attractive therapeutic targets, including PTP1B for obesity and Type II diabetes, SHP1, and SHP2 and CDC25B for cancer. GST-ΔPTP1B, GST-ΔSHP2, GST-ΔSHP1, GST-ΔLAR and GST-ΔCDC25B fusion proteins which only carry the PTP activity domain were expressed in Escherichia coli DH5α and affinity purified with glutathione Sepharose (Amersham Biosciences, Piscataway, NJ, USA). p-Nitrophenyl phosphate (pNPP) was used in the enzymatic reactions to determine the intrinsic catalytic activities of the PTPs. All assays using pNPP as the substrate were performed in a buffered reaction medium containing 10 mM of sodium acetate (NaAc), 1 mM of ethylenediaminetetraacetic acid and 1 mM of dithiothreitol at 37 °C, pH 5.5. […] Every experiment was performed in triplicate. The inhibitory activity measurements of PTPs were performed with different concentrations (0, 2.5, 5, 10, 20, 40 µg mL^−1) of inhibitor and 20 µg mL^−1 of PTPs. The reaction mixture was incubated at 37 °C for 15 min and the catalytic activity was detected by monitoring the absorbance at 405 nm immediately after adding 12.5 mM of pNPP.

CDC25B = molecular target: T4, CDC25B (Homo sapiens, UniProt P30305); test: PTP assay with pNPP as substrate, CDC25B; settings: GST-ΔCDC25B PTP activity domain, 37 °C, pH 5.5
T4 construct: fusion proteins which only carry the PTP activity domain were expressed in Escherichia coli DH5α; GST (N); made in house; host or cells: Escherichia coli DH5α
T4 sequence (P30305 431-538 limits assumed): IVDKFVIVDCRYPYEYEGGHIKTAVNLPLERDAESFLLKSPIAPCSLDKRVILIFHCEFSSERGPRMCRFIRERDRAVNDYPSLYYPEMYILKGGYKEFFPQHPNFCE
Source text: as §1

LAR = molecular target: T5, LAR (Homo sapiens, UniProt P10586); test: PTP assay with pNPP as substrate, LAR; settings: GST-ΔLAR PTP activity domain, 37 °C, pH 5.5
T5 construct: fusion proteins which only carry the PTP activity domain were expressed in Escherichia coli DH5α; GST (N); made in house; host or cells: Escherichia coli DH5α
T5 sequence (P10586 1352-1607 limits assumed): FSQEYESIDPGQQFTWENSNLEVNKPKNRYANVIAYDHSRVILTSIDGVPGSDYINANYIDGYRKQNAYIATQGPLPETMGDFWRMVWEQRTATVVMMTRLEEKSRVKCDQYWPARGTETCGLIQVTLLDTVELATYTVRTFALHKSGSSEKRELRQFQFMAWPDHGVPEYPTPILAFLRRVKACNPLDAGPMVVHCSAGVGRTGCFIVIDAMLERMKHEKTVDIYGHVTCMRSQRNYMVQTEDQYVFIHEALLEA
Source text: as §1

IC50 Values SHP2 (SHP2)	IC50 Values SHP1 (SHP1)	IC50 (PTP1B)	IC50 (SHP2)	IC50 (CDC25B)	IC50 (LAR)	IC50 (SHP1)	SMILES
122.2 µg/mL	4.3 µg/mL						[Na+].[Na+].[Na+].[O]=[V]([O-])([O-])[O-] [Sodium orthovanadate, reference compound]
		16.3 µM	19.2 µM	10.8 µM	11.3 µM	8.17 µM	Cc1cc(O)cc(O)c1C(=O)O[C@]1(C)C(=O)C=C2C=C(/C=C/C(=O)O)OC[C@H]2[C@@H]1O [Compound 2, (E)-3-((7S,8S,8aS)-7-((2,4-dihydroxy-6-methylbenzoyl)oxy)-8-hydroxyl-7-methyl-6-oxo-6,7,8,8a-tetra-hydro-1H-isochromen-3-yl)acrylic acid]
		34.9 µM	> 139 µM	11.4 µM	29.6 µM	15.6 µM	COC(c1cc2c([nH]1)C(=O)c1cc(C(OC)C(C)C)[nH]c1C2=O)C(C)C (centres unmarked) [Compound 1, 2,6-bis(1-methoxy-2-methylpropyl) pyrrolo[2,3-f]indole-4,8(1H,5H)-dione]
		17.3 µM	13.5 µM	18 µM	> 119 µM	11.6 µM	CC1(O)C2OC(=O)CCC(=O)NC3(Oc4ccc(C(=O)O)c(O)c4C(=O)C13)C2(C)O (single isomer, unassigned; (+)) [Compound 3]
